Key:
[1] = system: Bv8 expression; assay: Regulation of Bv8 gene expression in cultured human blood and bone marrow cells (Taqman); assay type: cell-based; conditions: for induction of Bv8 expression in human neutrophils and whole bone marrow cells / Bv8 expression in monocytes and lymphocytes: 10 ng/ml, 4 hr
Description: RNA was prepared using the RNeasy™ Mini Kit (Qiagen). 50 ng total RNA per reaction was used for the real time PCR (Taqman) analysis. For human Bv8, testis RNA (BD Biosciences) served as control. Reactions were run on 9600 Emulation mode of 7500 Real time PCR system (Applied Biosystems, Foster City, Calif.) and the absolute quantification with standard curve was used with Sequence Detection System (SDS) software. The expression level of each gene was further quantified relative to the housekeeping gene RPL19 in the same sample. The sequences of Taqman primers are as follows: Human Bv8 forward: ATG GCA CGG AAG CTA GGA (SEQ ID NO: 10), reverse: GCAGAGCTGAAGTCCTCTTGA (SEQ ID NO: 11), probe: TGCTGCTGGACCCTTCCTAAACCT (SEQ ID NO: 12); Human RPL19 forward: CGC AAG CGC CGT GAA (SEQ ID NO: 28), reverse: GGTCTCTTCCTCCTTGGATAAAGTC (SEQ ID NO: 29), probe: CCAGGCCAAGAAGGAGGAGATCATCA (SEQ ID NO: 30). Human specific VEGF forward: AAT GAC GAG GGC CTG GAG T (SEQ ID NO: 31), reverse: TTGATCCGCATAATCTGCATG (SEQ ID NO: 32), probe: TGTGCCCACTGAGGAGTCCAACATCA (SEQ ID NO: 33).
(§1) Recombinant human MCP-1, MIP-1α, MIP-1β, MIP-2, bFGF, VEGF, GM-CSF, G-CSF, SDF-1α, M-CSF, Erythropoietin (EPO) and TNFα were purchased from R&D Systems (Minneapolis, Minn.). Recombinant human IL-8, IFNγ, Bv8 (Prokineticin-2), IL-4, IL-10, IL-13, TGF-β were from PeproTech Inc. (Rocky Hill, N.J.). SCF (Stem Cell factor) was from Invitrogen Biosource (Carlsbad, Calif.). In some cases, G-CSF from Amgen (Neupogen/Filgrastim) was used. All cytokines were used at 10 ng/ml. Freshly purified cells were washed and re-suspended in HBSS media containing 0.2% BSA (low endotoxin, Serologicals Corp. Norcross, Ga.). Two million cells were incubated in 24-well plates with various cytokines and chemokines for 4 hr at 37° C. in a 5% CO2 incubator. Cells were then transferred into eppendorf tubes, centrifuged and lysed with RNA lysis buffer (Qiagen, Valencia, Calif.). Bv8 expression was assessed by Taqman with RPL19 (Ribosomal Protein L19) as the internal control gene.

[2] = system: TIB42-TAEC cells; assay: In vitro tube formation of tumor-associated endothelial cells; assay type: cell-based, mouse; conditions: Bv8 200 ng/ml, VEGF-A 100 ng/ml, 36 hours
Description: Tumor associated endothelial cells (TAECs) were isolated using a magnetic beads sorting system (Miltenyi Biotech), essentially as previously described (Hida et al., Cancer Res 64:8249-8255 (2004)). Briefly, TIB42 mouse lymphoma cells were injected into the dorsal lateral flanks of female beige nude mice. When tumors reached a diameter of […], they were excised, minced and then digested with collagenase II (Worthington Biochemical Corporation). Cell suspensions were than filtered using 100 μm to 40 μm meshes. CD31^+ cells were finally sorted using a FITC-CD31 antibody (BD Biosciences) according to the manufacturer's instructions. CD31+ cells were seeded in gelatin coated plates in the presence of EGM-2MV media (Cambrex). After 24 hs in culture CD31+ non-adherent cells were removed by washing several times with PBS.
For in vitro tube formation, TIB42-TAEC cells (passages 6-8) were starved for 5 hs in serum free medium. After this, cells were collected and resuspended in serum free medium supplemented with 5% BSA and treated with VEGF-A (100 ng/ml), Bv8 (200 ng/ml) or no addition (control). For specificity tests, Bv8, was incubated in the presence of anti-Bv8 Mabs (10 μg/ml). 5×10^5 cells were seeded in each well of a 24 well pre-coated with Matrigel™ (BD Biosciences) and tube formation was evaluated after 36 hours.

[3] = system: p44/42 MAPK; assay: MAPK phosphorylation in TAECs (Western blot); assay type: cell-based, mouse
Description: TIB42-TAEC cells were starved for 6 hr in basal media supplemented with 0.5% BSA. Cells were then stimulated with human recombinant Bv8 (200 ng/ml; PeproTech), Complete Media (CM), VEGF (100 ng/ml; PeproTech) or BSA (0.5%). Cell extracts were collected at the indicated time-points. Western blot analysis of the extracts from TIB42-TAEC cells was performed using PhosphoPlus p44/42 MAPK™ antibody kit (Cell signaling).

[4] = target: T1, PKR1/EG-VEGFR1 (Homo sapiens, UniProt Q8TCW9); assay: Bv8 bioactivity assay, GeneBLAzer NFAT-CHO cells transfected with PKR1/EG-VEGFR1; assay type: cell-based; conditions: Bv8 0.2-200 ng/ml; VEGF-A up to 200 ng/ml
T1 construct: host or cells: GeneBLAzer NFAT-CHO cells
T1 sequence (Q8TCW9 whole entry): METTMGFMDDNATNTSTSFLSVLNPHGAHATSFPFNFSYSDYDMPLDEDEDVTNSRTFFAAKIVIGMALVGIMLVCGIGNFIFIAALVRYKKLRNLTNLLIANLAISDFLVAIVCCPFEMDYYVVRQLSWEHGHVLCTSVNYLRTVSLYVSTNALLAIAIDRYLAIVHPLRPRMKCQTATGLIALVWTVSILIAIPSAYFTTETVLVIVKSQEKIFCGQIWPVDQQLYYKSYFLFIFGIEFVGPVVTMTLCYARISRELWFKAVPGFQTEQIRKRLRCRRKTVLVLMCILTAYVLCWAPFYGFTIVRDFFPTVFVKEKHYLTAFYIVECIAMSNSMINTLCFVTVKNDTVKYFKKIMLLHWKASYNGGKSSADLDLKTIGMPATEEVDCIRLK
Description: The GeneBLAzer® NFAT-CHO cells were obtained from Invitrogen Corporation (Carlsbad, Calif.). Cells were stably transfected with PKR1/EG-VEGFR1 and grown in DMEM (high glucose) containing 10% dialysed serum, 0.1 mM NEAA, 2 mM GlutaMax™ (Gibco), 1 mM sodium pyruvate, 10 μg/ml Zeocin, 500 μg/ml hygromycin. Cells were plated into 96-well Viewplate (Packard) with 2.5×10^4 in […] in 1% DMEM overnight at 5% CO2, 37° C. On the following day, cells were treated with various column fractions that were concentrated with Microcon Centrifugal Filter Devices (Ultracel YM-3) from Millipore. 0.2-0.02 ng/ml hBv8 (Peprotech Inc.) prepared in 1% DMEM was used as a positive control. One hour later, media was removed and replaced with […] Hank's solution containing 0.1% BSA and 6× loading buffer containing 1 mM CCF4 (Invitrogen Corporation). Plates were incubated for 1.5 hr at room temperature in the dark and read on Wallac plate reader at excitation wavelength of 410 nm and emission wavelength of 450/520 nm. Negative controls were cells with no ligand added and control media alone. CHO cells were stimulated with recombinant human Bv8 or pooled fractions for 1 hr before adding the β-lactamase substrate CCF4. To assess the specificity of the column fractions, anti-Bv8 antibodies 2B9 and 3F1 were added at […].

[5] = system: human neutrophils; assay: Chemotaxis of peripheral blood neutrophils; assay type: cell-based; conditions: for effect on neutrophil migration: all concentrations tested, data not shown
Description: 10^6 cells were washed with HBSS containing 0.2% BSA before putting into transwell insert with 5 μm pore size (Corning Incorporated, Lowell, Mass.). In the lower chamber, media alone or media with various cytokines at various concentrations (maximum at 200 ng/ml) was added. After 3 hr at 37° C., cells in the lower chamber were transferred, mixed with 9 ml ZPAK solution and counted on Z2 Coulter Particle Count and Size Analyzer (Beckman Coulter, Fullerton, Calif.).

[6] = system: Bv8 expression; assay: Regulation of Bv8 gene expression in cultured mouse BMMNCs (Taqman); assay type: cell-based; conditions: for up-regulation of Bv8 in unsorted BMMNCs: 10 ng/ml, 4 hr
Description: RNA from tissues or cells was prepared using the RNeasy Mini Kit® (Qiagen). 50 ng total RNA per reaction was used for the real time PCR (Taqman™) analysis. For mouse/human Bv8 and EG-VEGF/Bv8 receptor 1 (PKR-1/EG-VEGFR1, R-1), testis RNA (BD Biosciences) served as control. For mouse/human EG-VEGF/Bv8 receptor 2 (PKR-2/EG-VEGFR2, R2), hypothalamus or whole brain (BD Biosciences) served as the control tissues. Reactions were run on 9600 Emulation mode of 7500 Real […] time PCR system (Applied Biosystems) and the absolute quantification with standard curve was used with Sequence Detection System (SDS) software. The expression level of each gene was further quantified against the house-keeping gene RPL19 in the same sample. To confirm the expression of VEGFR-1, VEGFR-2, EG-VEGF/Bv8 R1 and EG-VEGF/Bv8 R2 in the tumor-associated endothelial cells, standard RT-PCR was conducted using the Titan One Tube™ RT-PCR system (Roche) and the end products were checked on 2% agarose gel (Invitrogen) for the correct size. The sequence of Taqman™ primers are as follows: […]
Recombinant mouse MCP-1, MIP-1α, MIP-1β, MIP-2, bFGF, VEGF, GM-CSF, G-CSF, SDF-1 and TNFα were purchased from R&D Systems (Minneapolis, Minn.). Recombinant mouse KC, IFNγ, Bv8 (Prokineticin-2), IL-4, IL-10, IL-13, TGF-β were from PeproTech Inc. (Rocky Hill, N.J.). […] Conditioned media at 1:3 dilution were used (final FBS concentration was 0.17%). Data were normalized against total cell number. BM cells were flushed from mouse leg bones with DMEM containing 10% FBS. Cells were centrifuged at 1200 rpm for 5 min and resuspended in HBSS media containing 0.2% BSA (low endotoxin, Serologicals Corp. Norcross, Ga.). Two million cells were incubated in 24-well plates with various cytokines for 4 hr at 37° C. in a 5% CO2 incubator. Cells were then transferred in eppendorf tubes, centrifuged and lysed by RNA lysis buffer (Qiagen, Valencia, Calif.). Bv8 expression was assessed by Taqman™ with RPL19 (Ribosomal Protein L19) as the internal control gene. In some cases, CD11b+Gr1+ or CD11b−Gr1− BM cells were obtained using FACS sorting.

[7] = system: PKR2/EG-VEGFR2 expression; assay: Regulation of PKR2/EG-VEGFR2 expression in human bone marrow cells and neutrophils; assay type: cell-based
Source text: Taqman reagents for human PKR1/EG-VEGFR1 and PKR2/EG-VEGFR2 were obtained from Applied Biosystems.
as §1

[8] = system: Bv8 expression; assay: Bv8 expression in human leukemia cell lines; assay type: cell-based
Description: U937, HL-60, THP-1, Hel 92.1.7, KG-1, K562, Jurkat cells were obtained from the ATCC® (Manassas, Va.). Most cells were grown in 10% FBS-containing RPMI. KG-1 cells were grown in 20% FBS-containing Iscove's modified Dulbecco's medium. For THP-1 cells, 10% FBS-containing RPMI was used with Sodium Pyruvate, HEPES and β-mercaptoethanol. For regulation studies, 1 million cells with viability higher than 95% were used. Regulation studies were performed under both normoxia and hypoxia conditions for 4 hr in 1 ml HBSS media containing 0.2% BSA.

IL-1β: cytokine interleukin-1β
induction of Bv8 expression in human neutrophils and whole bone marrow cells [1]: no stimulatory effect

SCF: Stem Cell factor (Invitrogen Biosource)
induction of Bv8 expression in human neutrophils and whole bone marrow cells [1]: no effect

VEGF-A: recombinant vascular endothelial growth factor-A
tube formation in Matrigel [2]: formed tubes | MAP kinase phosphorylation in TAECs [3]: strong induction of MAP kinase phosphorylation | stimulation of PKR1/EG-VEGFR1 transfected CHO cells [4]: did not elicit any response | effect on neutrophil migration [5]: did not show any effect

IL-8: recombinant human IL-8 (PeproTech)
concentration required to stimulate neutrophil migration [5]: 20 nM

GM-CSF: recombinant mouse or human granulocyte-macrophage-CSF (R&D Systems)
effect on Bv8 expression ([6]; BMMNCs and sorted subsets (FIG. 1 c&d)): no effect | induction of Bv8 expression in human neutrophils and whole bone marrow cells [1]: ~2.5 fold | inhibition of Bv8 expression in human monocytes ([1]; 4 hr treatment): about 75% | regulation of PKR2/EG-VEGFR2 in human bone marrow [7]: regulate PKR2/EG-VEGFR2 to a significant level | up-regulation of PKR2/EG-VEGFR2 expression in human neutrophils ([7]; 4 hr incubation, average): 4 fold | Bv8 expression in HL-60 [8]: Neither G-CSF nor GM-CSF affected Bv8 expression | induction of Bv8 expression in leukemia cell lines ([8]; any of the cell lines tested): no significant induction

SDF-1α
Bv8 expression in monocytes and lymphocytes [1]: significant stimulatory effect only on monocytes | concentration required to stimulate neutrophil migration [5]: 20 nM

IL-6: cytokine interleukin-6
up-regulation of Bv8 in unsorted BMMNCs [6]: did not show any significant stimulation | induction of Bv8 expression in human neutrophils and whole bone marrow cells [1]: no stimulatory effect

SDF-1: recombinant mouse SDF-1 (R&D Systems)
up-regulation of Bv8 in unsorted BMMNCs [6]: did not show any significant stimulation

MCP-1: recombinant human MCP-1 (R&D Systems)
effect on neutrophil migration [5]: did not show any effect

B1: IL-10: recombinant human IL-10 (PeproTech) (protein, UniProt P22301 19-178, looked up)
Interleukin-10: SPGQGTQSENSCTHFPGNLPNMLRDLRDAFSRVKTFFQMKDQLDNLLLKESLLEDFKGYLGCQALSEMIQFYLEEVMPQAENQDPDIKAHVNSLGENLKTLRLRLRRCHRFLPCENKSKAVEQVKNAFNKLQEKGIYKAMSEFDIFINYIEAYMTMKIRN
Bv8 expression in monocytes and lymphocytes [1]: up-regulated

B2: M-CSF: recombinant human M-CSF (R&D Systems) (protein, UniProt P09603 33-554, looked up)
Macrophage colony-stimulating …: EEVSEYCSHMIGSGHLQSLQRLIDSQMETSCQITFEFVDQEQLKDPVCYLKKAFLLVQDIMEDTMRFRDNTPNAIAIVQLQELSLRLKSCFTKDYEEHDKACVRTFYETPLQLLEKVKNVFNETKNLLDKDWNIFSKNCNNSFAECSSQDVVTKPDCNCLYPKAIPSSDPASVSPHQPLAPSMAPVAGLTWEDSEGTEGSSLLPGEQPLHTVDPGSAKQRPPRSTCQSFEPPETPVVKDSTIGGSPQPRPSVGAFNPGMEDILDSAMGTNWVPEEASGEASEIPVPQGTELSPSRPGGGSMQTEPARPSNFLSASSPLPASAKGQQPADVTGTALPRVGPVRPTGQDWNHTPQKTDHPSALLRDPPEPGSPRISSLRPQGLSNPSTLSAQPQLSRSHSSGSVLPLGELEGRRSTRDRRSPAEPEGGPASEGAARPLPRFNSVPLTDTGHERQSEGSFSPQLQESVFHLLVPSVILVLLAVGGLLFYRWRRRSHQEPQRADSPLEQPEGSPLTQDDRQVELPV
induction of Bv8 expression in human neutrophils and whole bone marrow cells [1]: no effect

Reference: patent publication US9284369B2, “Inhibition of angiogenesis” (Genentech, Inc., priority 2007, dated 2016)
